Consider four compounds from publication PMC6757420, “Identifying the active components of Baihe–Zhimu decoction that ameliorate depressive disease by an effective integrated strategy: a systemic pharmacokinetics study combined with classical depression model tests” (Chinese Medicine, 2019).

Data set [1] in a line: pharmacokinetic study of five major components after oral administration of BZD (HPLC-QQQ MS). The format is in vivo, Sprague–Dawley (SD) rats. The note with it: for ER (liver extraction ratio): from portal vein plasma and systemic plasma. The method, then:
The HPLC-QQQ MS method was developed according to a previous study in our group. Briefly, five compounds were simultaneously determined in plasma, liver and brain samples using a 1260 Series liquid chromatography system (Agilent Technologies, Palo Alto, CA, USA) coupled to a 6460 triple quadrupole mass spectrometer with an electrospray ionization source (Agilent Technologies, Palo Alto, CA, USA). Chromatographic separation was performed on an ACE Super C18 column (100 mm × 2.1 mm, 3.0 µm, Advanced Chromatography Technologies Ltd. Aberdeen, Scotland) at a temperature of 40 °C. The mobile phase consisted of water containing 0.1% formic acid (A) and acetonitrile containing 0.1% formic acid (B). The gradient program was performed as follows: 0–3 min, 92% A; 3.5–4.0 min, 88–60% A; 5.5–6 min, 60–55% A; 6.6–7 min, 55–5% A; 11–11.01 min, 5–92% A; 11.01–13.5 min, 92% A. The flow rate was set to 0.35 mL/min in the time range of 0–6.6 min and kept at 0.45 mL/min between 7 and 13.5 min. Five components were monitored in negative multiple reaction monitoring (MRM) mode. The parameters of the mass spectrometer were as follows: capillary voltage, 3500 V; nebulizer, 45 psi; gas temperature, 350 °C; gas flow rate, 12 L/min; sheath gas temperature, 400 °C; sheath gas flow rate, 8 L/min. MassHunter Workstation software (Agilent Technologies, Palo Alto, CA, USA) was used for system operation and data analysis.
All Sprague–Dawley (SD) rats and ICR mice were purchased from Shanghai SLAC Laboratory Animal Co., Ltd. and kept in the breeding room at 22 ± 2 °C and 50 ± 10% humidity in Shanghai Institute of Materia Medica (SIMM). The experimental protocols were approved by the Institutional Animal Care and Use Committee in SIMM. After 1 week of acclimation, all the SD rats were orally administered BZD (15 g/kg). The biological samples were collected from the rats after fasting for 12 h. After anaesthetization, the rats were dissected at 5 min, 15 min, 30 min, 1 h, 2 h, 4 h, 7 h, 10 h, 20 h and 40 h (n = 5 for each time-point). The hepatic portal vein plasma (2 mL) and the systemic plasma (6–8 mL) were subsequently harvested, and finally the liver and brain tissue samples were collected. The plasma sample were centrifuged at 9500×g for 5 min, and the tissue samples were washed with saline solution. All samples were stored at − 80 °C until analysis. The samples were prepared according to the method described in the previous study by our group.
A noncompartmental analysis was carried out using WinNonlin software (Pharsight 6.2, NC, USA) to calculate the PK parameters. The significance of the results in behavior assessment was analyzed by unpaired Student’s t-tests. A P value less than 0.05 was considered significant. The liver extraction ratio (ER) indicated the fraction of hepatic clearance and first-pass effect, and the calculation formula was as reported in a previous study by our group.

Another data set relates to dopamine (DA). As to the kind of experiment: content of dopamine (DA) by ELISA kit. The format is in vivo, ICR mice. The note with it: Table 5; 10 mg/kg oral; control 171.6 ± 54.5. The method, then: (§1) The antidepressant activity of the drugs was evaluated by classic behavioral measurements, such as the forced swimming test (FST) and tail suspension test (TST). All the ICR mice were randomly divided into several groups (n = 8) as follows: a control group with stimulation and different test groups subjected to FST and TST after the oral administration of different drugs for 8 days, including fluoxetine (10 mg/kg), BZD (3 g/kg), ZD (3 g/kg), Baihe decoction (BD, 3 g/kg), PZ (21.2 mg/kg), XZ (21.2 mg/kg), SZ (21.2 mg/kg), timosaponin BII (10 mg/kg) and timosaponin BIII (10 mg/kg).
(§2) The contents of dopamine (DA) and serotonin (5-HT) in the plasma were determined using ELISA Kits (Shanghai Jianglai Biotech Co., Ltd., Shanghai, China) according to the manufacturer’s instructions.
In general terms: An ELISA detects its analyte on a solid surface through an enzyme-linked reagent.

Data set [2] concerns ICR mice. Put plainly: forced swimming test (FST). The format is in vivo. The method, then:
as §1
(§3) The FST was performed according to a previously described method with minor modifications. Briefly, each mouse was individually placed in an open water-filled cylinder (H: 50 cm; Ø: 20 cm; water depth: 35 cm; temperature: 23–25 °C) and allowed to swim for a period of 6 min. The total time of immobility was recorded during the last 4 min of the testing duration. Immobility is defined as the mice floating in the water without movement. The TST was conducted as described in the literature. Briefly, the mice were suspended 20 cm above the floor for 6 min. The time of immobility was recorded after the first 2 min. Mice in a completely motionless state were considered immobile.

The next data set concerns serotonin (5-HT). Put plainly: content of serotonin (5-HT) by ELISA kit. The format is in vivo, ICR mice. The note with it: Table 5; 10 mg/kg oral; control 636.2 ± 80.1. The procedure: as §1, §2
Data set [3] relates to ICR mice. As to the kind of experiment: tail suspension test (TST). The class given is in vivo. The procedure: as §1, §3
Another data set deals with depressive rats. The settings on record: rats; by regulating inflammatory cytokines, BNDF signaling and synaptic plasticity; cited from earlier work.
Where [4] appears, read: Sprague-Dawley, rat, in vivo, po, 15 g/kg.
The mark [5] stands for this setting: cerebellum, rats, oral BZD 15 g/kg, n = 5.
Setting [6] is: hippocampus, rats, oral BZD 15 g/kg, n = 5.
[7] abbreviates: liver, rats, oral BZD 15 g/kg, n = 5.
Setting [8] is: portal vein plasma, rats, oral BZD 15 g/kg, n = 5.
Where [9] appears, read: systemic plasma, rats, oral BZD 15 g/kg, n = 5.
[10] abbreviates: Table 4, oral administration for 8 days, n = 8, 10 mg/kg, control 118.1 ± 24.3.
Setting [11] is: Table 4, oral administration for 8 days, n = 8, 10 mg/kg, control 102.0 ± 16.9.

“And” between values parts separate entries of the source, which are not always exact repeats. Equal values may be shown once. Where a name gives a salt, the structure may show the parent alone. Read-outs that look alike come from different tables or passages of the source.

Take `O=c1c2cc(O)c(O)cc2oc2cc(O)c([C@@H]3O[C@H](CO)[C@@H](O)[C@H](O)[C@H]3O)c(O)c12` [Mangiferin, mangiferin]: the Cmax in data set [1] (setting [4]) is 889.36 ± 191.49 ng/mL; in data set [1] (Sprague-Dawley, rat, in vivo, po, 15 g/kg, Cmax) it was 131 ng/g and 1760 ng/mL. Besides, in data set [1] (setting [4]), the Tmax is 1.00 h. The compound also returned an AUC(0-t) in data set [1] (Sprague-Dawley, rat, in vivo, po, 15 g/kg, AUC0–t) of 4020 ± 397 ng·h/mL.

Take `CC1=C(CC[C@H](C)CO[C@@H]2O[C@H](CO)[C@@H](O)[C@H](O)[C@H]2O)O[C@H]2C[C@H]3[C@@H]4CC[C@@H]5C[C@@H](O[C@@H]6O[C@H](CO)[C@H](O)[C@H](O)[C@H]6O[C@@H]6O[C@H](CO)[C@@H](O)[C@H](O)[C@H]6O)CC[C@]5(C)[C@H]4CC[C@]3(C)[C@@H]12` [Timosaponin BIII, timosaponin BIII]: the peak concentration (Cmax) was found to be 349.41 ± 34.90 ng/g in data set [1] (setting [5]); 198.23 ± 122.31 ng/g in data set [1] (setting [6]); 158.66 ± 22.12 ng/g in data set [1] (setting [7]); 226.39 ± 43.92 ng/mL in data set [1] (setting [8]); 114.14 ± 13.38 ng/mL in data set [1] (setting [9]). In addition, the T1/2 in data set [1] (setting [5]) is on record as 20.65 h; in data set [1] (setting [6]), 1.52 h; in data set [1] (setting [7]) it was 13.81 h; in data set [1] (setting [8]), 16.59 h; in data set [1] (setting [9]), 22.82 h. The Tmax is 0.25 h in data set [1] (setting [5]); 1.00 h in data set [1] (setting [6]); 0.08 h in data set [1] (setting [7]); 0.25 h in data set [1] (setting [8]); 0.25 h in data set [1] (setting [9]). The “ER (liver extraction ratio)” value in data set [1] (rats, oral BZD 15 g/kg) is reported as 11.57%; in data set [1] (rats, oral BZD 15 g/kg, listed as timosaponin BIII), 11.57%. Further, the “AUC0–t” value in data set [1] (setting [8]) worked out at 369.20 ± 74.63 ng/mL; in data set [1] (setting [9]), 326.47 ± 54.29 ng/mL. Further, the “Content (ng/g) DA” value in the data set on dopamine (DA) was found to be 191.3 ± 69.8 ng/g. The “Immobility time (mean ± SD, s) FST” value in the data set with ICR mice [2] (setting [10]) turned out to be 68.6 ± 23.2 s. For the same compound, the “Content (ng/g) 5-HT” value in the data set on serotonin (5-HT) was found to be 705.6 ± 47.7 ng/g. Besides, in the data set on ICR mice [3] (setting [11]), the “Immobility time (mean ± SD, s) TST” value came to 58.4 ± 15.6 s. The antidepressant effect result in the data set on depressive rats is “significantly ameliorated depressive effects”.

`CNCCC(Oc1ccc(C(F)(F)F)cc1)c1ccccc1` (stereo not shown) [Fluoxetine, fluoxetine hydrochloride]: the “Content (ng/g) DA” value in the data set with dopamine (DA) was 215.9 ± 36.5 ng/g. For the same compound, the “Immobility time (mean ± SD, s) FST” value with ICR mice [2] (Table 1, oral administration for 8 days, n = 8, fluoxetine 10 mg/kg, BZD, ZD, BD 3 g/kg, control 127.6 ± 40.9) is 84.8 ± 15.2 s; in the data set on ICR mice [2] (Table 2, oral administration for 8 days, n = 8, fluoxetine 10 mg/kg, SZ, PZ, XZ 21.2 mg/kg, control 134.3 ± 22.1), 82.0 ± 21.3 s; in the data set with ICR mice [2] (setting [10]) it was 70.2 ± 21.2 s. In addition, the “Content (ng/g) 5-HT” value with serotonin (5-HT) worked out at 731.3 ± 104.6 ng/g. Also, the “Immobility time (mean ± SD, s) TST” value in the data set on ICR mice [3] (Table 1, oral administration for 8 days, n = 8, fluoxetine 10 mg/kg, BZD, ZD, BD 3 g/kg, control 109.1 ± 15.5) was 62.0 ± 36.2 s; with ICR mice [3] (Table 2, oral administration for 8 days, n = 8, fluoxetine 10 mg/kg, SZ, PZ, XZ 21.2 mg/kg, control 118.6 ± 18.1), 69.5 ± 21.5 s; with ICR mice [3] (setting [11]) it was 50.0 ± 22.2 s.

Take `C[C@H]1CC[C@@]2(OC1)O[C@H]1C[C@H]3[C@@H]4CC[C@@H]5C[C@@H](O[C@@H]6O[C@H](CO)[C@H](O)[C@H](O)[C@H]6O[C@@H]6O[C@H](CO)[C@@H](O)[C@H](O)[C@H]6O)CC[C@]5(C)[C@H]4CC[C@]3(C)[C@H]1[C@@H]2C` [Timosaponin AIII, timosaponin AIII]: the half-life in data set [1] (Sprague-Dawley, rat, hepatic portal vein plasma, po, 15 g/kg, portal vein plasma, rats, oral BZD 15 g/kg, n = 5) was 10.3 h; in data set [1] (Sprague-Dawley, rat, liver, po, 15 g/kg, rats, oral BZD 15 g/kg, n = 5) it was 12.2 h; in data set [1] (Sprague-Dawley, rat, systemic plasma, po, 15 g/kg, rats, oral BZD 15 g/kg, n = 5), 11.2 h. The AUC(0-t) was found to be 583 ± 105 ng·h/mL in data set [1] (Sprague-Dawley, rat, hepatic portal vein plasma, po, 15 g/kg, portal vein plasma, rats, oral BZD 15 g/kg, n = 5, read-out: AUC0–t) and 156 ± 21.6 ng·h/mL in data set [1] (Sprague-Dawley, rat, systemic plasma, po, 15 g/kg, systemic plasma, rats, oral BZD 15 g/kg, n = 5, read-out: AUC0–t). Besides, the Cmax came to 61.8 ± 25.6 ng/mL in data set [1] (Sprague-Dawley, rat, hepatic portal vein plasma, po, 15 g/kg, portal vein plasma, rats, oral BZD 15 g/kg, n = 5, read-out: Cmax); 9360 ± 244 ng/g in data set [1] (Sprague-Dawley, rat, liver, po, 15 g/kg, liver, rats, oral BZD 15 g/kg, n = 5, read-out: Cmax); 16 ± 5.16 ng/mL in data set [1] (Sprague-Dawley, rat, systemic plasma, po, 15 g/kg, systemic plasma, rats, oral BZD 15 g/kg, n = 5, read-out: Cmax). For the same compound, the Tmax amounted to 4 h in data set [1] (Sprague-Dawley, rat, hepatic portal vein plasma, po, 15 g/kg, portal vein plasma, rats, oral BZD 15 g/kg, n = 5, read-out: Tmax); 20 h in data set [1] (Sprague-Dawley, rat, liver, po, 15 g/kg, liver, rats, oral BZD 15 g/kg, n = 5, read-out: Tmax); 4 h in data set [1] (Sprague-Dawley, rat, systemic plasma, po, 15 g/kg, systemic plasma, rats, oral BZD 15 g/kg, n = 5, read-out: Tmax). Besides, the “ER (liver extraction ratio)” value is 73.20% in data set [1] (rats, oral BZD 15 g/kg) and 73.21% in data set [1] (rats, oral BZD 15 g/kg, listed as timosaponin AIII).

Usually Cmax stands for the highest concentration seen after dosing. By Tmax is commonly meant the time from dosing to the highest level. For orientation: half-life means the time needed for the level to fall by half in the phase considered.
